Results on 14 substances are retold here after patent USRE39034E1, “Molecule involved in binding of sperm to egg surfaces and procedures for use of this molecule to enhance or decrease potential fertility” (The Penn State Research Foundation, priority 1996, dated 2006).

The experiment has as its system frozen-thawed rooster sperm binding to an extract of hen's egg membrane. Briefly: In vitro microwell sperm-egg binding assay, sperm treated with peptides (fluorescent plate reader). The experiment is classed as cell-based. The following applies: for Activity relative to SEQ ID NO: 1 / Biological activity / sperm binding capability (in words) / Peptide concentration which, after tenfold dilution of the sperm suspension, provided maximum binding / Concentration at which binding activity was induced (active at): frozen-thawed rooster sperm; for Peptide concentration which, after tenfold dilution of the sperm suspension, provided maximum binding: hen's egg membrane extract in microwell plate. The text has this:
The biological activity of the native UPSEBP prepared from rooster sperm and synthetic amino acid sequences were compared in an in vitro assay of sperm binding described in copending U.S. patent application Ser. No. 08/234,448. This microwell assay used plates in which the wells were coated with a binding substrate prepared from an extract of hen's egg vitelline membrane. The thawed rooster sperm, known to be reduced in UPSEBP, were washed once with isotonic salt solutions, resuspended at 50×10^5/0.1 ml, and incubated 30 minutes with 0.02-50 μg/0.5 ml native UPSEBP or synthetic peptide. Then 0.1 ml of a suspension of about 5×10^6 sperm were placed into each of triplicate wells in a microwell plate. After 2 hours of incubation at 37° C., unbound sperm were washed away and bound sperm were stained and counted using a microscope. The number of sperm bound was considered to be a measure of biological activity because there is a high correlation between the number of rooster sperm bound in vitro to such an egg extract and the fertilizing potential of sperm in that sample, as quantified by the percentage of eggs hatching young chicks after artificial insemination. Table No. 1 presents the amino acid sequence of synthetic peptides and the resulting binding capacity as compared to native UPSEBP (full sequence not provided). Initial evaluations of the capabilities of SEQ ID NO:1 through SEQ ID NO:11, native UPSEBP and rat SGP-1 to enhance sperm binding to an egg-membrane substrate were based on visual counts of bound sperm and conducted over a number of months. The binding data for SEQ ID NO:1 through SEQ ID NO:12 and native UPSEBP and rat SGP-1 presented in Table No. 1 were obtained as two data sets using a recent version of that sperm-egg binding assay in which the bound sperm were stained with a fluorescent dye binding to DNA and quantified using a fluorescent microwell-plate reader, by techniques known to those skilled in the art. The amino acid sequences of portions of human prosaposin (SEQ ID NO:15) and mouse prosaposin (SEQ ID NO:16) also are as shown. [table]

Entries after “also recorded” stand apart in the source; their conditions may differ. Bridges are numbered along the chain shown (N, C = ends). Where no end group is shown, it is not given here. [ ]: non-standard residue; d: D form.

Turning to YPQDRPRSQPQPKAN [SEQ ID NO:9], the “Activity relative to SEQ ID NO: 1” value was found to be 0.94; the “Biological activity / sperm binding capability (in words)” value is “substantial binding activity; also recorded: very high biological activity, approximately equal to that of SEQ ID NO:1”; the “Peptide concentration which, after tenfold dilution of the sperm suspension, provided maximum binding” value is 0.18 nmol.
Taken in the same sequence, the figures for “SEQ ID NO:10: Table 1 sequence: L-Leu-Tyr-Pro-Gln-Asp-Arg-Thr-Arg-Ser-Gln-Pro-Gln-Pro-Lys-Ala-Asn (LYPQDRTRSQPQPKAN; L-amino acids; SITE 1 L-isomer)” were 0.94, “greater than that of SEQ ID NO:11; also recorded: reduced activity relative to SEQ ID NO:1” and 8.8 nmol.
Take YPQDRTRSQPQPKAN [SEQ ID NO:1]: the “Activity relative to SEQ ID NO: 1” value was found to be 1; the “Biological activity / sperm binding capability (in words)” value is “greater biological activity than SEQ ID NO:2 through SEQ ID NO:8”; the “Peptide concentration which, after tenfold dilution of the sperm suspension, provided maximum binding” value amounted to 3.17 nmol. For the same substance, the “Biological activity / sperm binding capability (in words)” value (listed as SEQ NO:1) is given as “substantial binding activity”. Moreover, the “Number of sperm bound to the egg membrane substrate” value (nanomolar concentrations of peptide) is “approximately twice as many sperm bound”.
In the case of “SEQ ID NO:8: Table 1 sequence: Phe-Phe-Tyr-Pro-Gln-Asp-Arg-Thr-Arg-Ser-Gln-Pro-Gln-Pro (FFYPQDRTRSQPQP; Addition of a phenylalanine group to the NH2 end of SEQ ID NO 2 does not substantially suppress biological activity.)”, the “Activity relative to SEQ ID NO: 1” value is 0.002; the “Biological activity / sperm binding capability (in words)” value is recorded as “did not suppress biological activity relative to SEQ ID NO:2”; the “Peptide concentration which, after tenfold dilution of the sperm suspension, provided maximum binding” value turned out to be 100 nmol.
The corresponding values for “SEQ ID NO:3: Table 1 sequence: Gln-Pro-Gln-Pro-Lys-Ala-Asn (QPQPKAN; Portion of SEQ ID NO 1 essentially devoid of binding capability.)” are 0.0001, “essentially devoid of binding capability” and 2,125 nanomoles.
Taken in the same sequence, the figures for “SEQ ID NO:2: Table 1 sequence: Tyr-Pro-Gln-Asp-Arg-Thr-Arg-Ser-Gln-Pro-Gln-Pro (YPQDRTRSQPQP; Portion of SEQ ID NO 1 showing lower binding capability.)” were 0.0006, “lower binding capability” and 300 nmol.
The corresponding values for “SEQ ID NO:4: Table 1 sequence: Gln-Pro-Gln-Pro-Lys-Ala-Asn-Glu-Asp-Val-Cys-Gln-Asp-Cys-Met (QPQPKANEDVCQDCM; Addition of amino acids distal to the terminal asparagine of SEQ ID NO 3 does not substantially change biological activity.)” are 0.002, “did not substantially change biological activity” and 85 nmol.
For the substance “SEQ ID NO:5: Table 1 sequence: Pro-Gln-Pro-Lys-Ala-Asn-Glu-Asp-Val-Cys-Gln-Asp-Cys-Met-Lys-Leu-Val-Thr-Asp (PQPKANEDVCQDCMKLVTD; Addition of amino acids distal to the terminal asparagine of SEQ ID NO 3 does not substantially change biological activity.)”, the “Activity relative to SEQ ID NO: 1” value is given as 0.0003 and the “Peptide concentration which, after tenfold dilution of the sperm suspension, provided maximum binding” value is 510 nmol.
Regarding “SEQ ID NO:12 linear form: SEQ ID NO:12 as synthesized, 60 amino acid molecule (CQSLQEYLAEQNQRQLESNKIPEVDLARVVAPFMSNIPLLLYPQDRPRSQPQPKANEDVC; Synthetic peptide embodying the complete intervening sequence between rat saposin A and saposin B.)”, the “Potency relative to SEQ ID NO:9” value is “approximately 90 times”, the “Biological activity / sperm binding capability (in words)” value was “substantial biological activity” and the “Concentration at which binding activity was induced (active at)” value was 2 pM.
On to “SEQ ID NO:11: Table 1 sequence: D-Leu-Tyr-Pro-Gln-Asp-Arg-Thr-Arg-Ser-Gln-Pro-Gln-Pro-Lys-Ala-Asn ([dL]YPQDRTRSQPQPKAN)”, for which the “Activity relative to SEQ ID NO: 1” value was 0.001; the “Biological activity / sperm binding capability (in words)” value is given as “reduced activity relative to SEQ ID NO:1”; the “Peptide concentration which, after tenfold dilution of the sperm suspension, provided maximum binding” value was found to be 25 nmol.
Regarding “SEQ ID NO:12 hairpin form: SEQ ID NO:12 modified by induced oxidation of the SH-groups to a closed loop (CQSLQEYLAEQNQRQLESNKIPEVDLARVVAPFMSNIPLLLYPQDRPRSQPQPKANEDVC; disulfide 1-60 (inferred))”, the “Activity relative to the linear form of SEQ ID NO:12” value is listed as 5 times, the “Potency relative to SEQ ID NO:1” value was 425 times, the “Biological activity / sperm binding capability (in words)” value is “enhanced biological activity” and the “Concentration at which binding activity was induced (active at)” value came to 0.4 pM.
For “CQSLQEYLAEQNQRQLESNKIPEVDLARVVAPFMSNIPLLLYPQDRPRSQPQPKANEDVC (cysteine pairing not given here) [SEQ ID NO:12]”, the “Biological activity / sperm binding capability (in words)” value was “conferred substantial binding activity especially when oxidized to form a molecule with a hairpin form”.
Take “SEQ ID NO:7: Table 1 sequence: Acetyl-Tyr-Pro-Gln-Asp-Arg-Thr-Arg-Ser-Gln-Pro-Gln-Pro (Ac-YPQDRTRSQPQP)”: the “Activity relative to SEQ ID NO: 1” value was found to be 0.003; the “Biological activity / sperm binding capability (in words)” value was “did not suppress biological activity relative to SEQ ID NO:2”; the “Peptide concentration which, after tenfold dilution of the sperm suspension, provided maximum binding” value was found to be 50 nmol.
Taken in the same sequence, the figures for “SEQ ID NO:6: Table 1 sequence: Tyr-Pro-Gln-Asp-Arg-Thr-Arg-Ser-Gln-Pro-Gln-Cys (YPQDRTRSQPQC; Replacement of the terminal proline of SEQ ID NO 2 with a cysteine does not substantially change biological activity.)” were 0.0005, “minimal change in biological activity relative to SEQ ID NO:2” and 370 nmol.
